Experiment [1] deals with T1, UGT2B7 (Homo sapiens, UniProt P16662).
T1 construct: ultrapooled human liver microsomes (0.2 mg/mL), 5 mM UDPGA; from tissue; host or cells: ultrapooled human liver microsomes
T1 sequence (P16662 24-529): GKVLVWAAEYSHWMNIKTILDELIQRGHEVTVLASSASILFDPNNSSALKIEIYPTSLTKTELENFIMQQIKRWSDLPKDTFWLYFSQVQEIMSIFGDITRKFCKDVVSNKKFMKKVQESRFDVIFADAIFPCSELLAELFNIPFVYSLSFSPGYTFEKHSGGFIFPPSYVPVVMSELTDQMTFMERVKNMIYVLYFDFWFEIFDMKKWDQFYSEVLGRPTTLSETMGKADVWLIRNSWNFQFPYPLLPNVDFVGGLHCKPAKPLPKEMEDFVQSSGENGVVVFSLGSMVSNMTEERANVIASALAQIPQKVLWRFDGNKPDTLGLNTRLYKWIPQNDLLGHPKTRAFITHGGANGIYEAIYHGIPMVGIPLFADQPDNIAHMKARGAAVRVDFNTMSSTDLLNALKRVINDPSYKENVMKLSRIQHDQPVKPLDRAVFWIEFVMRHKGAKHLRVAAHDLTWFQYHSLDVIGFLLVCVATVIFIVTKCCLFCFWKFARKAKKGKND
In words: UGT2B7-catalyzed naloxone 3-β-D-glucuronidation in human liver microsomes. It counts as in vitro ADME. The settings on record: at 50 µM. As for the experimental part:
The inhibitory effects of EAM-2201 on UGT1A1, UGT1A3, UGT1A4, UGT1A6, UGT1A9 and UGT2B7 were evaluated using LC-MS/MS and the cocktail of UGT substrates as previously described. Each incubation mixture was prepared in a final volume of 100 µL as follows: ultrapooled human liver microsomes (0.2 mg/mL), 5 mM UDPGA, 10 mM magnesium chloride, alamethicin (25 µg/mL), 50 mM Tris buffer (pH 7.4), various concentrations of EAM-2201 in DMSO (final concentrations of 1–50 µM, 0.5% DMSO) and the UGT enzyme-specific substrates of two cocktail sets (set A: 0.5 µM SN-38, 2 µM chenodeoxycholic acid and 0.5 µM trifluoperazine; set B: 1 µM N-acetylserotonin, 0.2 µM mycophenolic acid and 1 µM naloxone, acetonitrile content, 0.5%). […] Supernatant from sets A and B (50 µL of each) was mixed and aliquots (5 µL) were analyzed by LC-MS/MS. […]
(§1) The metabolites formed from the six UGT cocktail substrates were simultaneously measured using LC-MS/MS [41]. […] Each metabolite was quantified via SRM in the negative ion mode: chenodeoxycholic acid 24-acyl-β-glucuronide, 567.2 > 391.0; mycophenolic acid glucuronide, 495.2 > 318.9; and propofol glucuronide (IS), 353.3 > 177.1; and in the positive ion mode: SN-38 glucuronide, 569.0 > 393.0; trifluoperazine glucuronide, 584.2 > 408.1; N-acetylserotonin-β-D-glucuronide, 395.2 > 219.0; naloxone 3-β-D-glucuronide, 504.0 > 310.0; and meloxicam (IS), 352.0 > 115.1. […]
For orientation: Liver microsomes are a subcellular fraction often used to study metabolism.

The target of experiment [2] is T2, UGT1A3 (Homo sapiens, UniProt P35503).
T2 sequence (P35503 29-534): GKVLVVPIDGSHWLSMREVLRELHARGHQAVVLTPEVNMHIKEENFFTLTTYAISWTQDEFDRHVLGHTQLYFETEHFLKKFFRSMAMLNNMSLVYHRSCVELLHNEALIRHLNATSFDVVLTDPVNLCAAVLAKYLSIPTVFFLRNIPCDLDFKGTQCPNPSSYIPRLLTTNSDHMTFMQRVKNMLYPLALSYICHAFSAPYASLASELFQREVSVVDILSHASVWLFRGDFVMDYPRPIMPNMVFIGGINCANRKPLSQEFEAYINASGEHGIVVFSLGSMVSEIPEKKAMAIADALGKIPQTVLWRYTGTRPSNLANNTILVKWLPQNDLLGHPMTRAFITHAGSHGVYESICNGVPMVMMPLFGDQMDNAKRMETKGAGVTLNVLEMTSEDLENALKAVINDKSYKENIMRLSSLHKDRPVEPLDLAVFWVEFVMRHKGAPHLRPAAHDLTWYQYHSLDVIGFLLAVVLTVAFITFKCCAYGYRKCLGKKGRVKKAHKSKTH
In words: UGT1A3-catalyzed chenodeoxycholic acid 24-acyl-glucuronidation in human liver microsomes. The experiment is classed as in vitro ADME. More on the design: from tissue; host or cells: ultrapooled human liver microsomes. On the procedure: The inhibitory effects of EAM-2201 on UGT1A1, UGT1A3, UGT1A4, UGT1A6, UGT1A9 and UGT2B7 were evaluated using LC-MS/MS and the cocktail of UGT substrates as previously described. […] Supernatant from sets A and B (50 µL of each) was mixed and aliquots (5 µL) were analyzed by LC-MS/MS. […]
Reactions were initiated by adding UDPGA at 37 °C and stopped after 60 min by adding 100 µL ice-cold methanol containing propofol glucuronide (internal standard). […] Aliquots (5 µL) of the diluted supernatants were analyzed using LC-MS/MS.
as §1

pIC50, pKi: −log10 of the molar value.

As a reminder, the pIC50 is the IC50 on a negative log10 scale, so that one unit is a factor of ten. A lower pIC50 goes with a large IC50. A word on the pKi: it is −log10 of the Ki, conventionally taken in molar units. Higher therefore signals a low Ki. With `CCc1ccc(C(=O)c2cn(CCCCCF)c3ccccc23)c2ccccc12` [EAM-2201, (4-ethyl-1-naphthalenyl)[1-(5-fluoropentyl)-1H-indol-3-yl]-methanone], the “inhibition of UGT2B7-catalyzed naloxone 3-β-D-glucuronidation” value in experiment [1] was “negligibly inhibited”. In experiment [2], this compound had a pIC50 of 4.93 and a pKi of 5.62.

Source of the values: PMC6017357, “In Vitro Inhibitory Effects of Synthetic Cannabinoid EAM-2201 on Cytochrome P450 and UDP-Glucuronosyltransferase Enzyme Activities in Human Liver Microsomes” (Molecules : A Journal of Synthetic Chemistry and Natural …, 2018).
